The values that follow come from patent US20130310371A1 (priority 2012, published 2013).

This test concerns rat. Put plainly: animal or person. Conditions: ip. It is filed as in vivo.

A word on the ED50: it is the dose at which the effect has come halfway, by size or by number of responders.

As to `Cc1cnc(NC(=O)C2=C(O)c3ccccc3S(=O)(=O)N2C)s1` [meloxicam], where the note is “Rattus norvegicus, 3 h, read-out: ED50 (95% CI), applied alone”, the median effective dose (ED50) turned out to be 141 mg/kg. In addition, the “analgesic effect in words” value (rat, in vivo) is listed as “dose-dependent analgesic effect”.
